# Assay results published in patent publication US20250340561A1, “QUINAZOLINE COMPOUND FOR INDUCING DEGRADATION OF G12D MUTANT KRAS PROTEIN” (Astellas Pharma Inc., priority 2021, published 2025).
# Structures can show the parent of a compound that is named as a salt. Where two headings read alike, the source gives them in different places.
# Legend:
# [1] = tested on: phosphorylation of ERK (Thr202/Tyr204); assay: Test Example 2: ERK phosphorylation inhibition action in AsPC-1, Cell ELISA; assay type: cell-based, human; details: AsPC-1 cells, 0% = 1 μM trametinib
# Description: Test Example 2: Evaluation of ERK Phosphorylation Inhibition Action on Human G12D Mutant KRAS-Positive Pancreatic Cancer Line AsPC-1
# The ERK phosphorylation inhibition action of test compounds was evaluated by measuring phosphorylation of the 202th threonine (Thr202) and the 204th tyrosine (Tyr204) of ERK located downstream of the KRAS signal by Cell ELISA.
# AsPC-1 cells were seeded on a 384-well plate (from Greiner bio-one) at 36 μL/well to give 2.0×10^4 cells per well. As for the cell culture conditions, a RPMI 1640 medium containing 10% fetal bovine serum was used in the presence of 5% CO2 at 37° C.
# The next day, the test compounds (6 points having final concentrations in the range of 10 μM to 3.0 nM), trametinib (MEK inhibitor) of a final concentration of 1 μM as a positive control and DMSO, which was the solvent for the test compounds, as a negative control were diluted 100-fold with a fresh medium and were added at 4 μL per well. The cells were then cultured for 24 hours. After culturing, a 30% glyoxal solution (40% glyoxal [from Nacalai Tesque] was diluted with PBS) was quickly added at 30 μL per well, and the plate was allowed to stand for 90 minutes at room temperature to thus immobilize the cells. Then, the plate was centrifuged to remove the supernatant (using a centrifugal dehydrator machine, the supernatant was removed by the same method hereinafter), and 0.1% Triton X-100-containing PBS was added at 20 μL per well. After allowing to stand for 10 minutes at room temperature, the supernatant was removed by centrifugation, and the same operation was further repeated. Next, 0.5% SDS-containing PBS was added at 20 μL per well, and after allowing to stand at room temperature for 30 minutes, the supernatant was removed by centrifugation. Subsequently, a blocking solution (Intercept Blocking Buffer) was added at 20 μL per well, and the plate was allowed to stand for 1 hour at room temperature. The supernatant was removed by centrifugation, and an ERK (Thr202/Tyr204) phosphorylation antibody (Phospho-p44/42 MAPK (Erk 1/2) (Thr202/Tyr204) (D13.14.4E) XP Rabbit mAb; from Cell Signaling Technology) diluted 2,500-fold with a blocking solution was added at 10 or 15 μL per well as a primary antibody. The plate was allowed to stand at 4° C. overnight.
# The next day, the plate was centrifuged to remove the supernatant. 0.05% Tween-20-containing PBS was added at 50 μL per well, and the supernatant was removed by centrifugation to thus wash each well. The washing was performed three times in total. After washing, Goat anti-Rabbit IgG H&L (IRDye 800CW) diluted 1,000-fold with a blocking solution was added at […] as a secondary antibody, and the plate was allowed to stand for 1 hour at room temperature. The plate was centrifuged to remove the supernatant, and each well was washed three times with 0.05% Tween-20-containing PBS in the same manner as after the primary antibody reaction. After removing the supernatant by centrifuging the plate, the plate was dried as it was with air at room temperature for 3 hours or more, and the 800-nm fluorescent signals were measured with Aerius.
# With the signaling value at the time of addition of DMSO taken as 100% and with the signaling value at the time of addition of 1 μM trametinib taken as 0%, the 50% inhibition values (IC50) were calculated by Sigmoid-Emax model nonlinear regression analysis. The molecular weights of the test compounds were calculated as the molecular weights of the dihydrochloride for Example No. 22, the trihydrochlorides for Example Nos. 2-7, 9-12, 14-18 and 30, the tetrahydrochlorides for Example Nos. 19 and 46, the pentahydrochloride for Example No. 21 and the free forms forming no salt for the remaining Example Nos. The results for some test compounds of the formula (I) are shown in Table 3.
# [2] = tested on: human G12D mutant KRAS-positive pancreatic cancer line AsPC-1; assay: Test Example 3: non-anchorage-dependent cell growth inhibition, spheroid 3D cell culture; assay type: cell-based; details: AsPC-1 spheroid 3D culture, 6 days, CellTiter Glo 2.0
# Description: Test Example 3: Evaluation of Non-Anchorage-Dependent Cell Growth Inhibition Action on Human G12D Mutant KRAS-Positive Pancreatic Cancer Line AsPC-1
# The non-anchorage-dependent cell growth inhibition action of test compounds was evaluated by spheroid 3D cell culture.
# AsPC-1 cells were seeded on a low-cell-adhesive round bottom 384-well plate (PrimeSurface: from Sumitomo Bakelite) at 36 μL/well to give 5×10^2 cells per well. The cell culture was performed under the same conditions as in the Test Example 2.
# The next day, the test compounds (6 points having final concentrations in the range of 10 μM to 3.0 nM) and DMSO, which was the solvent for the test compounds, as a negative control were diluted 100-fold with a fresh medium and were added at 4 μL per well. After culturing in the presence of […] at 37° C. for 6 days, CellTiter Glo 2.0 (from Promega) was added at 20 μL per well. After stirring with a plate mixer (from FINEPCR) at normal temperature for 1 hour, the luminescent signals were measured with ARVO X3 (from PerkinElmer).
# With the signaling value in treatment with DMSO taken as […] and with the signaling value in the medium alone without cells taken as […], the […] inhibition values (IC50) were calculated by Sigmoid-Emax model nonlinear regression analysis. The molecular weights of the test compounds were calculated as the molecular weights of the dihydrochloride for Example No. 22, the trihydrochlorides for Example Nos. 2-7, 9-12, 14-18 and 30, the tetrahydrochlorides for Example Nos. 19 and 46, the pentahydrochloride for Example No. 21 and the free forms forming no salt for the remaining Example Nos. The results for some test compounds of the formula (I) are shown in Table 4.
# [3] = Homo sapiens, ASPC1, 24 h, read-out: IC50
# [4] = Homo sapiens, ASPC1, 144 h, read-out: IC50
"IC50 [1, 3] [nM]","IC50 [2, 4] [nM]",Compound,"IC50 ([1]; Homo sapiens, ASPC1, 24 h) [nM]","IC50 ([2]; Homo sapiens, ASPC1, 144 h) [nM]",also measured
,,Cc1c(F)cc2[nH]ncc2c1-c1c(C2CC2)cc2c(N3C[C@@H]4C[C@H]3CN4)nc(OC3CCOCC3)nc2c1OCc1ccc(-c2cn([C@H](C(=O)N3C[C@H](O)C[C@H]3C(=O)N[C@@H](CO)c3ccc(F)cc3)C(C)C)nn2)cc1 [Example 13],29,74,
,,Cc1ncsc1-c1ccc([C@H](CO)NC(=O)[C@@H]2C[C@@H](O)CN2C(=O)[C@H](C(C)C)n2cc(-c3ccc(COc4c(-c5cc(O)cc(F)c5C)c(C5CC5)cc5c(N6C[C@@H]7C[C@H]6CN7)nc(OC6CCOCC6)nc45)cc3)nn2)cc1 [Example 15],22,64,
67,185,Cc1ncsc1-c1ccc([C@@H](NC(=O)[C@@H]2C[C@@H](O)CN2C(=O)[C@H](C(C)C)n2cc(-c3ccc(COc4c(-c5c(C)c(F)cc6[nH]ncc56)c(C5CC5)cc5c(N6C[C@@H]7C[C@H]6CN7)nc(OC6CCOCC6)nc45)cc3)nn2)C(F)F)cc1 [Example 16],,,
36,104,Cc1ncsc1-c1ccc([C@H](CF)NC(=O)[C@@H]2C[C@@H](O)CN2C(=O)[C@H](C(C)C)n2cc(-c3ccc(COc4c(-c5c(C)c(F)cc6[nH]ncc56)c(C5CC5)cc5c(N6C[C@@H]7C[C@H]6CN7)nc(OC6CCOCC6)nc45)cc3)nn2)cc1 [Example 17],,,
28,70,"Cc1c(F)cc2[nH]ncc2c1-c1c(C2CC2)cc2c(N3C[C@@H]4C[C@H]3CN4)nc(OC3CCOCC3)nc2c1OCc1ccc(-c2cn([C@H](C(=O)N3C[C@H](O)C[C@H]3C(=O)N[C@@H](CO)c3ccc(-c4scnc4CO)cc3)C(C)C)nn2)cc1 [Example 18, (4R)-1-[(2S)-2-(4-{4-[({6-cyclopropyl-4-[(1S,4S)-2,5-diazabicyclo[2.2.1]heptan-2-yl]-7-(6-fluoro-5-methyl-1H-indazol-4-yl)-2-[(oxan-4-yl)oxy]quinazolin-8-yl}oxy)methyl]phenyl}-1H-1,2,3-triazol-1-yl)-3-methylbutanoyl]-4-hydroxy-N-[(1R)-2-hydroxy-1-{4-[4-(hydroxymethyl)-1,3-thiazol-5-yl]phenyl}ethyl]-L-prolinamide n hydrochloride]",,,
51,138,Cc1ncsc1-c1ccc([C@H](CN(C)C)NC(=O)[C@@H]2C[C@@H](O)CN2C(=O)[C@H](C(C)C)n2cc(-c3ccc(COc4c(-c5c(C)c(F)cc6[nH]ncc56)c(C5CC5)cc5c(N6C[C@@H]7C[C@H]6CN7)nc(OC6CCOCC6)nc45)cc3)nn2)cc1 [Example 19],,,
36,79,"Cc1c(F)cc2[nH]ncc2c1-c1c(C2CC2)cc2c(N3C[C@@H]4C[C@H]3CN4)nc(OC3CCOCC3)nc2c1OCc1ccc(-c2cn([C@H](C(=O)N3C[C@H](O)C[C@H]3C(=O)N[C@@H](CO)c3ccc(N4CCOC4=O)cc3)C(C)C)nn2)cc1 [Example 20, (4R)-1-[(2S)-2-(4-{4-[({6-cyclopropyl-4-[(1S,4S)-2,5-diazabicyclo[2.2.1]heptan-2-yl]-7-(6-fluoro-5-methyl-1H-indazol-4-yl)-2-[(oxan-4-yl)oxy]quinazolin-8-yl}oxy)methyl]phenyl}-1H-1,2,3-triazol-1-yl)-3-methylbutanoyl]-4-hydroxy-N-{(1R)-2-hydroxy-1-[4-(2-oxo-1,3-oxazolidin-3-yl)phenyl]ethyl}-L-prolinamide]",,,
19,47,Cc1ncsc1-c1ccc([C@H](CO)NC(=O)[C@@H]2C[C@@H](O)CN2C(=O)[C@H](C(C)C)n2cc(-c3ccc(COc4c(-c5c(C)c(F)cc6[nH]ncc56)c(C5CC5)cc5c(N6C[C@@H]7C[C@H]6CN7)nc(OC6CCN(CC(F)F)CC6)nc45)cc3)nn2)cc1 [Example 21],,,
,,Cc1c(F)cc2[nH]ncc2c1-c1c(C2CC2)cc2c(N3C[C@@H]4C[C@H]3CN4)nc(OC3CCOCC3)nc2c1OCc1ccc(-c2cn([C@H](C(=O)N3C[C@H](O)C[C@H]3C(=O)N[C@@H](CO)c3ccc(-c4ccnn4C)cc3)C(C)C)nn2)cc1 [Example 22],12,27,
,,Cc1c(F)cc2[nH]ncc2c1-c1c(C2CC2)cc2c(N3C[C@@H]4C[C@H]3CN4)nc(OC3CCOCC3)nc2c1OCc1ccc(-c2cn([C@H](C(=O)N3C[C@H](O)C[C@H]3C(=O)N[C@@H](CO)c3ccc(-c4ccnn4C)cc3)C(C)C)nn2)cc1 [Example 23],,,IC50 ([1]; 24 hours): 10 nM; IC50 [2]: 21 nM
,,Cc1ncsc1-c1ccc([C@H](CO)NC(=O)[C@@H]2C[C@@H](O)CN2C(=O)[C@H](C(C)C)n2cc(-c3ccc(COc4c(-c5c(C)c(F)cc6[nH]ncc56)c(C5CC5)cc5c(N6C[C@@H]7C[C@H]6CN7)nc(OC6CCN(C7COC7)CC6)nc45)cc3)nn2)cc1 [Example 24],25,55,
,,CCc1ccncc1Oc1nc(N2C[C@@H]3C[C@H]2CN3)c2cc(C3CC3)c(-c3c(C)c(F)cc4[nH]ncc34)c(OCc3ccc(-c4cn([C@H](C(=O)N5C[C@H](O)C[C@H]5C(=O)N[C@@H](CO)c5ccc(-c6scnc6C)cc5)C(C)C)nn4)cc3)c2n1 [Example 25],15,66,
,,CCn1nccc1-c1ccc([C@H](CO)NC(=O)[C@@H]2C[C@@H](O)CN2C(=O)[C@H](C(C)C)n2cc(-c3ccc(COc4c(-c5c(C)c(F)cc6[nH]ncc56)c(C5CC5)cc5c(N6C[C@@H]7C[C@H]6CN7)nc(OC6CCOCC6)nc45)cc3)nn2)cc1 [Example 26],8,20,
,,Cc1ncsc1-c1ccc([C@H](CO)NC(=O)[C@@H]2C[C@@H](O)CN2C(=O)[C@H](C(C)C)n2cc(-c3ccc(COc4c(-c5c(C)c(F)cc6[nH]ncc56)c(C5CC5)cc5c(N6C[C@@H]7C[C@H]6CN7)nc(OC6COC6)nc45)cc3)nn2)cc1 [Example 27],27,103,
,,Cc1ncsc1-c1ccc([C@H](CO)NC(=O)[C@@H]2C[C@@H](O)CN2C(=O)[C@H](C(C)C)n2cc(-c3ccc(COc4c(-c5c(C)c(F)cc6[nH]ncc56)c(C5CC5)cc5c(N6C[C@@H]7C[C@H]6CN7)nc(O[C@@H]6CCOC6)nc45)cc3)nn2)cc1 [Example 28],12,37,
,,Cc1ncsc1-c1ccc([C@H](CO)NC(=O)[C@@H]2C[C@@H](O)CN2C(=O)[C@H](C(C)C)n2cc(-c3ccc(COc4c(-c5c(C)c(F)cc6[nH]ncc56)c(C5CC5)cc5c(N6C[C@@H]7C[C@H]6CN7)nc(O[C@H]6CCOC6)nc45)cc3)nn2)cc1 [Example 29],15,42,
